From patent publication US7678829B2, “Oculoselective drugs and prodrugs” (QLT Inc., priority 2004, dated 2010)

What was measured:
albino rabbits = assay: Corneal anesthesia measurements (Cochet's esthesiometer); format: in vivo, rabbit
Method: The effect of a 50 μl single instillation of 0.3%, 0.5%, 1.0% and 2.0% solution of compound 7 on corneal anesthesia, after a single instillation in the conjunctival sac of the right eyes of albino rabbits (N=5) was measured using a Cochet's esthesiometer (nylon thread: 0.12 mm diameter, 10 mm long). Corneal anesthesia was evaluated by the number of comeal mechanical stimuli necessary to induce a blinking reflex. The effect of drug solutions was compared with sterile 0.9% NaCl treated animals (control group) and 0.4% oxybuprocaine (Novesine®).

[1] = Ocular bioavailability, aqueous humor analyzed by HPLC; format: in vivo; conditions: rabbit aqueous humor
Method: Three rabbits were used per time point. The 50 μl test substance was administered in a single instillation using a micropipette into the conjunctival sac of the right and the left eyes. The rabbits were anesthetized with an intramuscular injection of Imalgéne® 1000 (ketamine 32 mg/kg), and Rompun® (xylasine 7.5 mg/kg). They were then desanguinated by cardiac puncture and thereafter euthanized by an overdose of pentobarbital. Immediately after death, the eyes were micro-dissected to obtain: cornea (C), aqueous humor (AH), and iris-ciliary body (ICB). All samples were stored at −80° C. Only aqueous humor (AH) samples were analyzed by HPLC.

[2] = Accelerated stability test of 0.25% solutions in acetate buffer, HPLC; format: physicochemical; conditions: for projected shelf-life: conventional eye drop formulation, at room temperature
Method: An accelerated stability test was conducted on 0.25% solutions of compounds 6, 7, and 8 (Example 2) at 40° C. for 1, 2, 3, 4, 8 and 12 weeks and monitored for the disappearance of the prodrugs and appearance of the parent compound by HPLC analysis. The parent compound (referred to hereinafter as compound 4) has the formula: […]
The respective compounds were dissolved in an acetate buffer, pH 3.5 (0.018% sodium acetate, 0.135% acetic acid, 0.9% sodium chloride in water for injection) to obtain 0.25% solution. The stability of the compounds was determined at 40° C. for 1, 2, 3, 4, 8, and 12 weeks. The concentration of the parent compound as well as the concentrations of the prodrug compounds 6, 7, and 8 at each time point by HPLC method.

Row | Structure (SMILES) | corneal sensitivity (local anesthetic activity) (albino rabbits; 50 μl single instillation of 0.3%, 0.5%, 1.0% and 2.0% solution, compared to 0.4% oxybuprocaine) | level of the prodrug itself in aqueous humor [1] | relative stability (FIG. 1, percent degradation) ([2]; 0.25% solution, 40° C., pH 3.5, compared among compounds 6, 7 and 8) | projected shelf-life [2] | corneal sensitivity (local anesthetic activity) (albino rabbits; at 1%)
1 | Cc1cc(O)c(O)cc1C(=O)OCC(CNC(C)(C)CNC(=O)C1CCOC1)OC(=O)C1(C)CC1 (centres unmarked) [Compound 7, 4,5-Dihydroxy-2-methyl-benzoic acid 3-{1,1-dimethyl-2-[(tetrahydro-furan-3-carbonyl)-amino]-ethylamino}-2-(1-methyl-cyclopropanecarbonyloxy)-propyl ester] | no comeal sensitivity | also present in aqueous humor | most stable | at least 18 months | 
2 | Cc1cc(O)c(O)cc1C(=O)OCC(CNC(C)(C)CNC(=O)C1CCOC1)OC(=O)C1CC1(C)C (centres unmarked) [Compound 8, 4,5-dihydroxy-2-methyl-benzoic acid 2-(2,2-dimethyl-cyclopropanecarbonyloxy)-3-{1,1-dimethyl-2-[(tetrahydro-furan-3-carbonyl)-amino]-ethylamino}-propyl ester] |  |  |  | 7.9 months | 
3 | Cc1cc(O)c(O)cc1C(=O)OCC(CNC(C)(C)CNC(=O)C1CCOC1)OC(=O)C(C)(C)C (centres unmarked) [Compound 6, reference compound] |  | below the detection limit |  | 2.6 months | complete comeal sensitivity loss
